We go through 29 compounds from patent publication US10758534B2 (Vertex Pharmaceuticals Incorporated, priority 2014, dated 2020).

T1 sequence (P13569 with tags, fused parts or gaps DEL508-508): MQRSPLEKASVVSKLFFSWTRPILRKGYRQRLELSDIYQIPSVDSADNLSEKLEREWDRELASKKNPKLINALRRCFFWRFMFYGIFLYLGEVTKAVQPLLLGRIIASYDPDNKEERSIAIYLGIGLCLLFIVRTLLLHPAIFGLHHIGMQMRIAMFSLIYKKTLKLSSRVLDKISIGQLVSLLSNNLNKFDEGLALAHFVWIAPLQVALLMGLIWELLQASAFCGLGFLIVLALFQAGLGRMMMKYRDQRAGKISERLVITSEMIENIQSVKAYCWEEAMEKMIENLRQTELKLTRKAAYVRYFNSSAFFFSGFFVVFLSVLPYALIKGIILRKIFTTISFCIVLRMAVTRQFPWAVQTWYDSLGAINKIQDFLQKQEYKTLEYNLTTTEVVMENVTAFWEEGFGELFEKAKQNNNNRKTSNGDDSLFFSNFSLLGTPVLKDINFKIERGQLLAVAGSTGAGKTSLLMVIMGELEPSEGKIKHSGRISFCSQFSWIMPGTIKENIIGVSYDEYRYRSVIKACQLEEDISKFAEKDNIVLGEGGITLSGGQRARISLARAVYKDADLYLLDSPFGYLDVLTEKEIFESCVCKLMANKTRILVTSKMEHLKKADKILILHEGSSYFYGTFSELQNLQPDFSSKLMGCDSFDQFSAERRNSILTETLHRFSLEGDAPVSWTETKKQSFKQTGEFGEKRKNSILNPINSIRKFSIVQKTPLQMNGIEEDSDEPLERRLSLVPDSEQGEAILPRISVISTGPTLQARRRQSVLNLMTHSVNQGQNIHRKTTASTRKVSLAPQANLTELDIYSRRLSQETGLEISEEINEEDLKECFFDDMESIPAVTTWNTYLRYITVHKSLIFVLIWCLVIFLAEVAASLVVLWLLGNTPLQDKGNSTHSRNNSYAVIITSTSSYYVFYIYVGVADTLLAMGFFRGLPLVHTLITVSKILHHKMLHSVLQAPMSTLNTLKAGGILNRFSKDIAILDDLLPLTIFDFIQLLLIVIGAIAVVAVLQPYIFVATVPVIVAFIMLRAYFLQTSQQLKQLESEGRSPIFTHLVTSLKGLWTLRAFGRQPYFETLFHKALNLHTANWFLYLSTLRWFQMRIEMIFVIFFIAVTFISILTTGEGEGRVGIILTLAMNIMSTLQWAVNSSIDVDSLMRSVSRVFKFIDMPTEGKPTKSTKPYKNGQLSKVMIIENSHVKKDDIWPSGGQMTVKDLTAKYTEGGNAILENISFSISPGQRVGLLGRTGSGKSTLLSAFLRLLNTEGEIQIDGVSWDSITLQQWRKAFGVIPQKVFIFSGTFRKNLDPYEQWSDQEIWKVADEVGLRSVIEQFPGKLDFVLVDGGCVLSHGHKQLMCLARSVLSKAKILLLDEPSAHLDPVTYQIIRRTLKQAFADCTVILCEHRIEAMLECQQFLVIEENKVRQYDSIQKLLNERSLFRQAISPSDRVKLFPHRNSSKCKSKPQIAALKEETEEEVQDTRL

One assay concerns the target T1, F508del (Homo sapiens, UniProt P13569, DEL508-508).
T1 construct: expressed in transfected cells
Briefly: Protocol 2: FRET membrane potential optical assay (VIPR), identification of correction compounds. The format is cell-based. Particulars: F508del CFTR modulator activity; compounds of Table 1; read-out: EC30. An outline of the steps: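 NIH3T3 mouse fibroblasts stably expressing F508del-CFTR incubated with compound 16 h at 37 °C in serum-free medium, then loaded with CC2-DMPE/DiSBAC2(3) FRET dyes. Channel activated with 10 μM forskolin plus 20 μM genistein in Cl⁻-free (gluconate) bath; depolarisation from Cl⁻ efflux read on VIPR II.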
Regarding `CC1CN(c2ncccc2C(=O)NS(=O)(=O)c2cccc(Nc3c(F)cc(F)cc3F)n2)C(C)(C)C1` (centres unmarked) [Compound 2106, N—[[6-(2,4,6-trifluoroanilino)-2-pyridyl]sulfonyl]-2-(2,2,4-trimethylpyrrolidin-1-yl)pyridine-3-carboxamide], the EC30 is less than 3 µM.
For `COc1ccccc1-c1ccc(C(=O)NS(=O)(=O)N2CC[C@H](N)C2)c(N2C[C@@H](C)CC2(C)C)n1` [Compound 2666, N-[(3S)-3-aminopyrrolidin-1-yl]sulfonyl-6-(2-methoxyphenyl)-2-[(4S)-2,2,4-trimethylpyrrolidin-1-yl]pyridine-3-carboxamide], the concentration for an effect of 30% (EC30) is 3 to 10 µM.
Turning to `C[C@@H]1CN(c2nc(C3=CCCN(C(=O)NC(C)(C)C)C3)ccc2C(=O)NS(=O)(=O)c2cccc(N)n2)C(C)(C)C1` [Compound 2568, N-[(6-amino-2-pyridyl)sulfonyl]-6-[1-(tert-butylcarbamoyl)-3,6-dihydro-2H-pyridin-5-yl]-2-[(4S)-2,2,4-trimethylpyrrolidin-1-yl]pyridine-3-carboxamide], the EC30 lay in the range of 3 to 10 µM.
Same read-out and setting: next, `CC1CN(c2ncccc2C(=O)NS(=O)(=O)c2cccc(Oc3cccc(Cl)c3)n2)C(C)(C)C1` (centres unmarked) [Compound 2461, N—[[6-(3-chlorophenoxy)-2-pyridyl]sulfonyl]-2-(2,2,4-trimethylpyrrolidin-1-yl)pyridine-3-carboxamide]: less than 3 µM.
Consider `CCC1(C)CC(C)CN1c1nc(-c2cc(F)cc(OCC(C)C)c2)ccc1C(=O)NS(=O)(=O)c1cccc(N)n1` (single isomer, unassigned) [Compound 2213, N-[(6-amino-2-pyridyl)sulfonyl]-2-(2-ethyl-2,4-dimethyl-pyrrolidin-1-yl)-6-(3-fluoro-5-isobutoxy-phenyl)pyridine-3-carboxamide], for which the 30% effect concentration (EC30) is less than 3 µM.
For `CC(C)COc1cc(F)cc(-c2ccc(C(=O)NS(=O)(=O)c3cccc(N)n3)c(N3CCCC4CC43)n2)c1` (centres unmarked) [Compound 2376, N-[(6-amino-2-pyridyl)sulfonyl]-2-(5-azabicyclo[4.1.0]heptan-5-yl)-6-(3-fluoro-5-isobutoxy-phenyl)pyridine-3-carboxamide], the 30% effect concentration (EC30) is less than 3 µM.
As for `Cc1ccc(-c2ccc(C(=O)NS(=O)(=O)c3ccc[nH]c3=O)c(N3C[C@@H](C)CC3(C)C)n2)c(C)c1` [Compound 2037, 6-(2,4-dimethylphenyl)-N-[(2-oxo-1H-pyridin-3-yl)sulfonyl]-2-[(4S)-2,2,4-trimethylpyrrolidin-1-yl]pyridine-3-carboxamide], the EC30 was less than 3 µM.
With `COc1cccc(-c2cnc(N3CC(C)CC3(C)C)c(C(=O)NS(=O)(=O)c3cccc(N)n3)c2)c1` (centres unmarked) [Compound 2031, N-[(6-amino-2-pyridyl)sulfonyl]-5-(3-methoxyphenyl)-2-(2,2,4-trimethylpyrrolidin-1-yl)pyridine-3-carboxamide], the concentration for an effect of 30% (EC30) was less than 3 µM.
`Cc1ccccc1-c1ccc(C(=O)NS(=O)(=O)c2ccc[nH]c2=O)c(N2C[C@@H](C)CC2(C)C)n1` [Compound 2176, 6-(o-tolyl)-N-[(2-oxo-1H-pyridin-3-yl)sulfonyl]-2-[(4S)-2,2,4-trimethylpyrrolidin-1-yl]pyridine-3-carboxamide]: the EC30 is less than 3 µM.
The same measure, in the same setting: next, `CC1CN(c2ncccc2C(=O)NS(=O)(=O)c2cccc(N3Cc4ccc(F)cc4C3)n2)C(C)(C)C1` (centres unmarked) [Compound 2580, N—[[6-(5-fluoroisoindolin-2-yl)-2-pyridyl]sulfonyl]-2-(2,2,4-trimethylpyrrolidin-1-yl)pyridine-3-carboxamide]: less than 3 µM; `CC1CN(c2ncccc2C(=O)NS(=O)(=O)c2cccc(OCc3ccc(C(F)(F)F)nc3)n2)C(C)(C)C1` (centres unmarked) [Compound 2476, N—[[6-[[6-(trifluoromethyl)-3-pyridyl]methoxy]-2-pyridyl]sulfonyl]-2-(2,2,4-trimethylpyrrolidin-1-yl)pyridine-3-carboxamide]: less than 3 µM.
With `C[C@@H]1CN(c2nc(-n3ccc(-c4ccccn4)n3)ccc2C(=O)NS(=O)(=O)C2CC2)C(C)(C)C1` [Compound 2711], the EC30 lay within 3 to 10 µM.
Consider `CC1CN(c2ncccc2C(=O)NS(=O)(=O)c2cccc(Oc3ccc(C#N)cc3)n2)C(C)(C)C1` (centres unmarked) [Compound 2076, N—[[6-(4-cyanophenoxy)-2-pyridyl]sulfonyl]-2-(2,2,4-trimethylpyrrolidin-1-yl)pyridine-3-carboxamide], for which the EC30 was less than 3 µM.
With `CC(C)Oc1ccn(-c2ccc(C(=O)NS(=O)(=O)c3ccc[nH]c3=O)c(N3C[C@@H](C)CC3(C)C)n2)n1` [Compound 2360, 6-(3-isopropoxypyrazol-1-yl)-N-[(2-oxo-1H-pyridin-3-yl)sulfonyl]-2-[(4S)-2,2,4-trimethylpyrrolidin-1-yl]pyridine-3-carboxamide], the concentration for an effect of 30% (EC30) fell in the range of 3 to 10 µM.
Regarding `C[C@@H]1CN(c2nc3ccccc3cc2C(=O)NS(=O)(=O)c2cccc(N)n2)C(C)(C)C1` [Compound 2265, N-[(6-amino-2-pyridyl)sulfonyl]-2-[(4S)-2,2,4-trimethylpyrrolidin-1-yl]quinoline-3-carboxamide], the EC30 was less than 3 µM.

The assay is the same for the next values; noted with them: Table 3; compounds of Table 1 as modulators of CFTR activity; protocol not stated.
Take `Cc1cc(C)c(Oc2cc(C(C)(C)C)ncc2C(=O)NS(=O)(=O)c2cccc(N)c2)c(C)c1` [Compound 338, N-(3-aminophenyl)sulfonyl-6-tert-butyl-4-(2,4,6-trimethylphenoxy)pyridine-3-carboxamide]: the EC30 entry is listed as “+++ (“+++” means <3 uM)”.
Turning to `CC1CCN(c2nc(-c3cc(F)cc(OC(C)C)c3)ccc2C(=O)NS(=O)(=O)c2nccnc2N)CC1` [Compound 699, N-(3-aminopyrazin-2-yl)sulfonyl-6-(3-fluoro-5-isopropoxy-phenyl)-2-(4-methyl-1-piperidyl)pyridine-3-carboxamide], the EC30 entry is listed as “+++ (“+++” means <3 uM)”.
In the case of `CC1CN(c2nc(-c3ccc(OC(C)C)nc3)ccc2C(=O)NS(=O)(=O)c2cccc(N)n2)CC(C)(C)C1` (centres unmarked) [Compound 520, N-[(6-amino-2-pyridyl)sulfonyl]-6-(6-isopropoxy-3-pyridyl)-2-(3,3,5-trimethyl-1-piperidyl)pyridine-3-carboxamide], the 30% effect concentration (EC30) entry is given as “+++ (“+++” means <3 uM)”.
With `Cc1cc(C)c(Oc2nc(-c3ccc4c(c3)OCCCO4)ccc2C(=O)NS(=O)(=O)c2cccc(N)n2)c(C)c1` [Compound 14, N-[(6-amino-2-pyridyl)sulfonyl]-6-(3,4-dihydro-2H-1,5-benzodioxepin-7-yl)-2-(2,4,6-trimethylphenoxy)pyridine-3-carboxamide], the EC30 result was “+++ (“+++” means <3 uM)”.
Consider `Cc1cccc(C)c1Cn1nc(-c2cccc(C(F)F)c2)cc1C(=O)NS(=O)(=O)c1ccccc1` [Compound 315, N-(benzenesulfonyl)-5-[3-(difluoromethyl)phenyl]-2-[(2,6-dimethylphenyl)methyl]pyrazole-3-carboxamide], for which the EC30 entry is given as “+++ (“+++” means <3 uM)”.
Same read-out and setting: next, `CC(C)Oc1ccc(-c2ccc(C(=O)NS(=O)(=O)c3cccc(N)n3)c(N3CCCC3C(C)C)n2)cn1` (centres unmarked) [Compound 724, N-[(6-amino-2-pyridyl)sulfonyl]-6-(6-isopropoxy-3-pyridyl)-2-(2-isopropylpyrrolidin-1-yl)pyridine-3-carboxamide]: “+++ (“+++” means <3 uM)”; `CC(C)COc1cc(F)cc(-c2ccc(C(=O)NS(=O)(=O)c3cccc(N)n3)c(N3CCC[C@@H]3C)n2)c1` [Compound 421, N-[(6-amino-2-pyridyl)sulfonyl]-6-(3-fluoro-5-isobutoxy-phenyl)-2-[(2S)-2-methylpyrrolidin-1-yl]pyridine-3-carboxamide]: “+++ (“+++” means <3 uM)”.
Consider `CC(C)COc1cc(F)cc(-c2ccc(C(=O)NS(=O)(=O)c3cccc(N)n3)c(N3CC[C@H](C)C3)n2)c1` [Compound 678, N-[(6-amino-2-pyridyl)sulfonyl]-6-(3-fluoro-5-isobutoxy-phenyl)-2-[(3S)-3-methylpyrrolidin-1-yl]pyridine-3-carboxamide], for which the EC30 result is recorded as “+++ (“+++” means <3 uM)”.
As to `CC(C)COc1cc(F)cc(-c2ccc(C(=O)NS(=O)(=O)c3cccc(N)n3)c(N3CCCC3C3CC3)n2)c1` (centres unmarked) [Compound 593, N-[(6-amino-2-pyridyl)sulfonyl]-2-(2-cyclopropylpyrrolidin-1-yl)-6-(3-fluoro-5-isobutoxy-phenyl)pyridine-3-carboxamide], the EC30 entry is reported as “+++ (“+++” means <3 uM)”.
The same measure, in the same setting: next, `COc1cccc(-c2ccc(C(=O)NS(=O)(=O)c3cccc(N)n3)c(Oc3c(C)cc(C)cc3C)n2)c1F` [Compound 661, N-[(6-amino-2-pyridyl)sulfonyl]-6-(2-fluoro-3-methoxy-phenyl)-2-(2,4,6-trimethylphenoxy)pyridine-3-carboxamide]: “+++ (“+++” means <3 uM)”; `Cc1cccc(C)c1Cn1nc(C(C)(C)C)cc1C(=O)NS(=O)(=O)c1c(F)cccc1F` [Compound 170, 5-tert-butyl-N-(2,6-difluorophenyl)sulfonyl-2-[(2,6-dimethylphenyl)methyl]pyrazole-3-carboxamide]: “+++ (“+++” means <3 uM)”; `Cc1cc(C)c(Cn2nc(-c3ccccc3)cc2C(=O)NS(=O)(=O)c2cccc(N)c2)c(C)c1` [Compound 366]: “+++ (“+++” means <3 uM)”.
On to `Cc1ccc(Oc2nc(-c3cc(F)cc(OCC(C)C)c3)ccc2C(=O)NS(=O)(=O)c2ccn[nH]2)cc1` [Compound 758, 6-(3-fluoro-5-isobutoxy-phenyl)-2-(4-methylphenoxy)-N-(1H-pyrazol-5-ylsulfonyl)pyridine-3-carboxamide], for which the EC30 entry was “++ (“++” means between 3 uM and 10 uM)”.
In the case of `Cc1cc(C)c(Cn2nc(C(C)(C)C)nc2C(=O)NS(=O)(=O)c2cccc(N)c2)c(C)c1` [Compound 261, N-(3-aminophenyl)sulfonyl-5-tert-butyl-2-[(2,4,6-trimethylphenyl)methyl]-1,2,4-triazole-3-carboxamide], the EC30 result is “+++ (“+++” means <3 uM)”.

The term EC30 denotes the concentration needed for an effect of 30%.
